Assay results: ChEMBL document CHEMBL1201862, “PubChem BioAssay data set” (2004)
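Compound exposure: 48 hours, 5 concentrations, 96-well plates. GI50 = concentration required for 50% inhibition of growth.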 The source made the active and inactive calls. No stated cut-off is given here; in the data, active = GI50 up to about 1.1 µM and inactive = higher.

What was measured:
Test in all cases: DTP human tumour cell line panel, 48 h
[1] = tested on: K562
[2] = tested on: ACHN
[3] = tested on: COLO 205
[4] = tested on: PC-3
[5] = tested on: TK-10
[6] = tested on: SF-539
[7] = tested on: NCI-H522
[8] = tested on: CAKI-1
[9] = tested on: OVCAR-3
[10] = tested on: HL-60
[11] = tested on: MDA-N
[12] = tested on: HOP-62
[13] = tested on: NCI-H23
[14] = tested on: T47D
[15] = tested on: SK-MEL-28
[16] = tested on: CCRF-CEM
[17] = tested on: U-251
[18] = tested on: NCI/ADR-RES
[19] = tested on: MDA-MB-231
[20] = tested on: NCI-H460
[21] = tested on: MCF7
[22] = tested on: DU-145
[23] = tested on: HOP-92
[24] = tested on: Hs-578T
[25] = tested on: SNB-75
[26] = tested on: EKVX
[27] = tested on: OVCAR-4
[28] = tested on: SR
[29] = tested on: A549
[30] = tested on: HCC 2998
[31] = tested on: A498
[32] = tested on: KM12
[33] = tested on: MDA-MB-435
[34] = tested on: SF-295
[35] = tested on: UO-31
[36] = tested on: OVCAR-5
[37] = tested on: 786-0
[38] = tested on: MOLT-4
[39] = tested on: LOX IMVI
[40] = tested on: SNB-19
[41] = tested on: IGROV-1
[42] = tested on: HCT-15
[43] = tested on: Malme-3M
[44] = tested on: OVCAR-8
[45] = tested on: HT-29
[46] = tested on: SW-620
[47] = tested on: M14
[48] = tested on: BT-549
[49] = tested on: SK-OV-3
[50] = tested on: NCI-H226
[51] = tested on: RPMI-8226
[52] = tested on: SK-MEL-5
[53] = tested on: UACC-257
[54] = tested on: RXF 393
[55] = tested on: UACC-62
[56] = tested on: SN12C
[57] = tested on: HCT-116
[58] = tested on: SK-MEL-2
[59] = tested on: SF-268

O=c1[nH]/c(=C/c2ccc(OCc3ccccc3)cn2)c(=O)[nH]/c1=C/c1ccc(O)cc1
GI50 [1]: 859 nM (active)
GI50 [2]: 1670 nM (inactive)
GI50 [3]: 1450 nM (inactive)
GI50 [4]: 1130 nM (inactive)
GI50 [5]: 931 nM (active)
GI50 [6]: 461 nM (active)
GI50 [7]: 276 nM (active)
GI50 [8]: 834 nM (active)
GI50 [9]: 1270 nM (inactive)
GI50 [10]: 298 nM (active)
GI50 [11]: 129 nM (active)
GI50 [12]: 1880 nM (inactive)
GI50 [13]: 1160 nM (inactive)
GI50 [14]: 1760 nM (inactive)
GI50 [15]: 1790 nM (inactive)
GI50 [16]: 45.4 nM (active)
GI50 [17]: 719 nM (active)
GI50 [18]: 774 nM (active)
GI50 [19]: 1600 nM (inactive)
GI50 [20]: 1410 nM (inactive)
GI50 [21]: 1000 nM (active)
GI50 [22]: 984 nM (active)
GI50 [23]: 11600 nM (inactive)
GI50 [24]: 1670 nM (inactive)
GI50 [25]: 762 nM (active)
GI50 [26]: 2710 nM (inactive)
GI50 [27]: 219 nM (active)
GI50 [28]: 1400 nM (inactive)
GI50 [29]: 3050 nM (inactive)
GI50 [30]: 991 nM (active)
GI50 [31]: > 37200 nM (inactive)
GI50 [32]: 1230 nM (inactive)
GI50 [33]: 109 nM (active)
GI50 [34]: 8850 nM (inactive)
GI50 [35]: 622 nM (active)
GI50 [36]: 8320 nM (inactive)
GI50 [37]: 612 nM (active)
GI50 [38]: 301 nM (active)
GI50 [39]: 507 nM (active)
GI50 [40]: 2150 nM (inactive)
GI50 [41]: 764 nM (active)
GI50 [42]: 501 nM
GI50 [43]: 2340 nM (inactive)
GI50 [44]: 877 nM (active)
GI50 [45]: 1480 nM (inactive)
GI50 [46]: 537 nM (active)
GI50 [47]: 940 nM (active)
GI50 [48]: 2490 nM (inactive)
GI50 [49]: 4990 nM (inactive)
GI50 [50]: 51400 nM (inactive)
GI50 [51]: 766 nM (active)
GI50 [52]: 2070 nM (inactive)
GI50 [53]: 2560 nM (inactive)
GI50 [54]: 865 nM (active)
GI50 [55]: 1580 nM (inactive)
GI50 [56]: 1040 nM (active)
GI50 [57]: 1080 nM (active)
GI50 [58]: 1330 nM (inactive)
GI50 [59]: 1040 nM (active)

COc1ccc2nc3cc(Cl)ccc3c(NCCCN(C)CCCNc3ccc4ncn5c6ccccc6c(=O)c3c45)c2c1
GI50 [1]: 3.83 nM (active)
GI50 [2]: 10.2 nM (active)
GI50 [3]: 39.1 nM (active)
GI50 [4]: 547 nM (active)
GI50 [5]: 148 nM (active)
GI50 [6]: 86.1 nM (active)
GI50 [7]: 26.4 nM (active)
GI50 [8]: 184 nM (active)
GI50 [9]: 1570 nM (inactive)
GI50 [10]: 22.6 nM (active)
GI50 [11]: 81.7 nM (active)
GI50 [12]: 817 nM (active)
GI50 [13]: 1180 nM (inactive)
GI50 [14]: 4150 nM (inactive)
GI50 [15]: 2610 nM (inactive)
GI50 [16]: 228 nM (active)
GI50 [17]: 47.8 nM (active)
GI50 [18]: 1260 nM (inactive)
GI50 [19]: 108 nM (active)
GI50 [20]: 15.7 nM (active)
GI50 [21]: 52.5 nM (active)
GI50 [22]: 587 nM (active)
GI50 [23]: 3260 nM (inactive)
GI50 [24]: 3990 nM (inactive)
GI50 [25]: 2380 nM (inactive)
GI50 [26]: 637 nM (active)
GI50 [27]: 89.7 nM (active)
GI50 [28]: 19 nM (active)
GI50 [29]: 32.1 nM (active)
GI50 [30]: 10.3 nM (active)
GI50 [31]: 4220 nM (inactive)
GI50 [32]: 123 nM (active)
GI50 [33]: 183 nM (active)
GI50 [34]: 169 nM (active)
GI50 [35]: 488 nM (active)
GI50 [36]: 3090 nM (inactive)
GI50 [37]: 33.3 nM (active)
GI50 [38]: 2.64 nM (active)
GI50 [39]: 116 nM (active)
GI50 [40]: 269 nM (active)
GI50 [41]: 37.4 nM (active)
GI50 [42]: 47.6 nM
GI50 [43]: 2690 nM (inactive)
GI50 [44]: 163 nM (active)
GI50 [45]: 2.5 nM (active)
GI50 [46]: 5.73 nM (active)
GI50 [47]: 558 nM (active)
GI50 [48]: 82.2 nM (active)
GI50 [49]: 2720 nM (inactive)
GI50 [50]: 395 nM (active)
GI50 [51]: 65.6 nM (active)
GI50 [52]: 366 nM (active)
GI50 [53]: 973 nM (active)
GI50 [54]: 53.6 nM (active)
GI50 [55]: 1920 nM (inactive)
GI50 [56]: 30.2 nM (active)
GI50 [57]: 2.5 nM (active)
GI50 [58]: 3300 nM (inactive)
GI50 [59]: 246 nM (active)
